ChEMBL document CHEMBL5584348, “Exploring Degradation of Intrinsically Disordered Protein Yes-Associated Protein Induced by Proteolysis TArgeting Chimeras” (J Med Chem, 2024)
Blank lines part the entries; values can stand above or below the compound they belong to. Activity calls are given as the source filed them. The calls are words filed in the database; no cut-off is given here.

Key:
Huh-7 [1] = test: Antitumor activity against human Huh-7 cells xenografted in immunodeficient male NSG mouse assessed as tumor growth inhibition at 100 mg/kg, po administered every 3 days for 24 days; format: functional; conditions: Huh-7, 576 h, time 24 day, read-out: TGI
[2] = molecular target: T1, Protein cereblon/Transcriptional coactivator YAP1 (Homo sapiens) (UniProt P46937+Q96SW2); test: PROTAC activity at YAP/CRBN in human NCI-H226 cells assessed as induction of YAP degradation 10 uM incubated for 48 hrs by Western blot analysis; format: cell-based
T1 sequence (P46937 whole entry, looked up): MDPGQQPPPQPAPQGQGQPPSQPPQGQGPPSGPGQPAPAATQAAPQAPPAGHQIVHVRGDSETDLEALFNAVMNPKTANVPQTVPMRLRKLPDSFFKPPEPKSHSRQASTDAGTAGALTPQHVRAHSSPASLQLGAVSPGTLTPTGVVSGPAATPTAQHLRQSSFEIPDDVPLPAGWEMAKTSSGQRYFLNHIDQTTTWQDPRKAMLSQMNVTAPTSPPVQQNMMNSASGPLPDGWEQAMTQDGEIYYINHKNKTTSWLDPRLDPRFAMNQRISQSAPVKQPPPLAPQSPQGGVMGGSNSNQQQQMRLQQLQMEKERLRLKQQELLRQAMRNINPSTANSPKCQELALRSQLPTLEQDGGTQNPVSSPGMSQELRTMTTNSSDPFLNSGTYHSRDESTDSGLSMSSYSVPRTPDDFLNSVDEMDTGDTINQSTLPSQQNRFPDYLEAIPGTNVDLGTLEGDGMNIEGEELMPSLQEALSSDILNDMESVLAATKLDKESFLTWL
T1 sequence (Q96SW2 whole entry, looked up): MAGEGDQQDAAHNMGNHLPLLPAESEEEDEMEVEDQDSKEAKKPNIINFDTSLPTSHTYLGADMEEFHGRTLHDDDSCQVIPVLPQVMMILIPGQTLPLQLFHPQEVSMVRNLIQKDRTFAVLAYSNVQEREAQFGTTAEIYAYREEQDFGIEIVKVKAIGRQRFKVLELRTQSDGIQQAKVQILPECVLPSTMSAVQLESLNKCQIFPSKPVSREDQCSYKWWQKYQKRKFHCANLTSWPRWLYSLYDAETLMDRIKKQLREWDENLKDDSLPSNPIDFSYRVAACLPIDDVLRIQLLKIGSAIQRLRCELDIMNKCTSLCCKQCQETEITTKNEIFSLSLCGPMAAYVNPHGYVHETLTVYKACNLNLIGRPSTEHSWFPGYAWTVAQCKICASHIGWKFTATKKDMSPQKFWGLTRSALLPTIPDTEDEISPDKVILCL

NCI-H226 [3] = test: Antiproliferative activity against human NCI-H226 cells assessed as cell killing upto 3.13 uM incubated for 4 days by CCK-8 assay; format: functional, cell-based; conditions: time 4.0 day
[4] = molecular target: Transcriptional enhancer factor TEF-1 (Homo sapiens) (UniProt P28347); test: Inhibition of TEAD transcriptional activity in human HEK293T cells incubated for 24 hrs by luciferase reporter assay; format: cell-based
Chain of Transcriptional enhancer factor TEF-1 (Homo sapiens) (P28347 whole entry): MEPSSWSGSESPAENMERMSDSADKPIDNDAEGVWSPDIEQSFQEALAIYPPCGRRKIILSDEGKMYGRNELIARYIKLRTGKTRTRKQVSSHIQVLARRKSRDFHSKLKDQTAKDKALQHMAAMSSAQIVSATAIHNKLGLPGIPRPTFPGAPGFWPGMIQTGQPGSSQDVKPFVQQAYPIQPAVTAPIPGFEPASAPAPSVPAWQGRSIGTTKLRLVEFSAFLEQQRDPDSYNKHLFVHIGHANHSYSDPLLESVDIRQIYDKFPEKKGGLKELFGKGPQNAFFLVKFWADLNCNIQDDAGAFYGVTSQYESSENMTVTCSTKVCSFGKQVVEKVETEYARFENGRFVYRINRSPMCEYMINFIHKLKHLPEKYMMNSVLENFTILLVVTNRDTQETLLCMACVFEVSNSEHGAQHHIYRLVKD

NCI-H226 [5] = test: Antiproliferative activity against human NCI-H226 cells assessed as cell killing at 10 uM incubated for 3 days by CCK-8 assay; format: functional, cell-based; conditions: time 3.0 day
[6] = molecular target: T2, von Hippel-Lindau disease tumor suppressor/Transcriptional coactivator YAP1 (Homo sapiens, UniProt P40337+P46937); test: PROTAC activity at YAP/VHL in human NCI-H226 cells assessed as reduction in YAP level at 10 uM incubated for 48 hrs by Western blot analysis; format: cell-based
Target sequence in this assay (P40337 whole entry, looked up): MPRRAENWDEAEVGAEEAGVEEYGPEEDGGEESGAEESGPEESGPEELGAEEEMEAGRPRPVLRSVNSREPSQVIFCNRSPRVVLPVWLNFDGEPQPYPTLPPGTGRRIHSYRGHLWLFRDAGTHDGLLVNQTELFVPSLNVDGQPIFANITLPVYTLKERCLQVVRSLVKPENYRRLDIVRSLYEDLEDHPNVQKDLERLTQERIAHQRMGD
Target sequence in this assay (P46937 whole entry, looked up): as the sequence (P46937 whole entry, looked up) above

[7] = molecular target: T2, von Hippel-Lindau disease tumor suppressor/Transcriptional coactivator YAP1; test: PROTAC activity at YAP/VHL in human NCI-H226 cells assessed as effect on YAP level at 10 uM incubated for 48 hrs by Western blot analysis; format: cell-based
Target sequence in this assay (P40337 whole entry, looked up): as the sequence (P40337 whole entry, looked up) above
Target sequence in this assay (P46937 whole entry, looked up): as the sequence (P46937 whole entry, looked up) above

NCI-H226 [8] = test: Antiproliferative activity against human NCI-H226 cells assessed as cell killing at 12.5 uM incubated for 3 days by CCK-8 assay; format: functional, cell-based; conditions: time 3.0 day
[9] = molecular target: T2, von Hippel-Lindau disease tumor suppressor/Transcriptional coactivator YAP1; test: PROTAC activity at YAP/VHL in human NCI-H226 cells assessed as induction of YAP degradation 10 uM incubated for 48 hrs by Western blot analysis; format: cell-based
Target sequence in this assay (P40337 whole entry, looked up): as the sequence (P40337 whole entry, looked up) above
Target sequence in this assay (P46937 whole entry, looked up): as the sequence (P46937 whole entry, looked up) above

[10] = molecular target: T1, Protein cereblon/Transcriptional coactivator YAP1 (Homo sapiens); test: PROTAC activity at YAP/CRBN in human NCI-H226 cells assessed as effect on YAP level at 10 uM incubated for 48 hrs by Western blot analysis; format: cell-based
[11] = molecular target: T1, Protein cereblon/Transcriptional coactivator YAP1 (Homo sapiens); test: PROTAC activity at YAP/CRBN in human NCI-H226 cells assessed as induction of YAP degradation at 10 uM incubated for 48 hrs by Western blot analysis; format: cell-based
NCI-H226 [12] = test: Antiproliferative activity against human NCI-H226 cells assessed as cell growth inhibition incubated for 3 days by CCK-8 assay; format: functional, cell-based; conditions: time 3.0 day
[13] = molecular target: T2, von Hippel-Lindau disease tumor suppressor/Transcriptional coactivator YAP1; test: PROTAC activity at YAP/VHL in human NCI-H226 cells assessed as induction of YAP degradation at 10 uM incubated for 48 hrs by Western blot analysis; format: cell-based
Target sequence in this assay (P40337 whole entry, looked up): as the sequence (P40337 whole entry, looked up) above
Target sequence in this assay (P46937 whole entry, looked up): as the sequence (P46937 whole entry, looked up) above

[14] = molecular target: T2, von Hippel-Lindau disease tumor suppressor/Transcriptional coactivator YAP1; test: PROTAC activity at YAP/VHL in human NCI-H226 cells assessed as induction of YAP degradation incubated for 48 hrs by Western blot analysis; format: cell-based
Target sequence in this assay (P40337 whole entry): as the sequence (P40337 whole entry, looked up) above
Target sequence in this assay (P46937 whole entry): as the sequence (P46937 whole entry, looked up) above

[15] = molecular target: T2, von Hippel-Lindau disease tumor suppressor/Transcriptional coactivator YAP1; test: PROTAC activity at YAP/VHL in human NCI-H226 cells assessed as reduction in CTGF expression incubated for 48 hrs by Western blot analysis; format: cell-based; conditions: dose 2.5-20 µM
Target sequence in this assay (P40337 whole entry, looked up): as the sequence (P40337 whole entry, looked up) above
Target sequence in this assay (P46937 whole entry, looked up): as the sequence (P46937 whole entry, looked up) above

NCI-H226 [16] = test: Antiproliferative activity against NF2 deficient- human NCI-H226 cells assessed as cell growth inhibition incubated for 4 days by CCK-8 assay; format: functional, cell-based; conditions: NCI-H226, 96 h
Huh-7 [17] = test: Antiproliferative activity against human Huh-7 cells overexpressing YAP assessed as cell growth inhibition incubated for 4 days by CCK-8 assay; format: functional, cell-based; conditions: Huh-7, 96 h
NCI-H226 [18] = test: Antiproliferative activity against NF2 deficient- human NCI-H226 cells assessed as maximum cell growth inhibition incubated for 4 days by CCK-8 assay relative to control; format: functional; conditions: time 4 day
[19] = molecular target: Transcriptional coactivator YAP1 (Homo sapiens) (UniProt P46937); test: Induction of YAP degradation in human NCI-H290 cells at 5 uM relative to control; format: cell-based
Chain of Transcriptional coactivator YAP1 (Homo sapiens) (P46937 whole entry): as the sequence (P46937 whole entry, looked up) above

SMILES: CNC(=O)c1cc(Oc2ccc(NC(=O)Nc3ccc(Cl)c(C(F)(F)F)c3)cc2)ccn1 [SORAFENIB]
inhibition in vivo at 100 mg/kg (Huh-7 [1]): 76%

SMILES: COc1ccc(-c2cc(-c3ccc(OCC(=O)NCCOCCNc4cccc5c4C(=O)N(C4CCC(=O)NC4=O)C5=O)cc3)nc3c2CC(=O)Nc2ccccc2-3)cc1OC (configuration not stated)
Activity [2]: inactive
Activity (NCI-H226 [3]): inactive

SMILES: COc1ccc(-c2cc(-c3ccccc3)nc3c2CC(=O)Nc2ccccc2-3)cc1O
TEAD transcriptional inhibition (active/inactive call) [4]: Active

SMILES: COc1ccc(-c2cc(-c3ccc(OCCCCCC(=O)N[C@H](C(=O)N4C[C@H](O)C[C@H]4C(=O)N[C@@H](C)c4ccc(-c5scnc5C)cc4)C(C)(C)C)cc3)nc3c2CC(=O)Nc2ccccc2-3)cc1OC
Activity (NCI-H226 [3]): inactive
Activity [9]: inactive

SMILES: COc1ccc(-c2cc(-c3ccc(OCC(=O)NCCOCCOCCOCCNc4cccc5c4C(=O)N(C4CCC(=O)NC4=O)C5=O)cc3)nc3c2CC(=O)Nc2ccccc2-3)cc1OC (configuration not stated)
Activity [2]: inactive
Activity (NCI-H226 [3]): inactive

SMILES: COc1ccc(-c2cc(-c3ccc(OCCOCCOCCC(=O)N[C@H](C(=O)N4C[C@H](O)C[C@H]4C(=O)N[C@@H](C)c4ccc(-c5scnc5C)cc4)C(C)(C)C)cc3)nc3c2CC(=O)Nc2ccccc2-3)cc1OC
Activity (NCI-H226 [3]): inactive
Activity [9]: inactive

SMILES: COc1cc(-c2cc(-c3ccccc3)nc3c2CC(=O)Nc2ccccc2-3)ccc1OCC(=O)NCCOCCOCCOCCNc1cccc2c1C(=O)N(C1CCC(=O)NC1=O)C2=O (configuration not stated)
Activity (NCI-H226 [8]): inactive
Activity [10]: inactive

SMILES: COc1cc(-c2cc(-c3ccccc3)nc3c2CC(=O)Nc2ccccc2-3)ccc1OCCCCCCCC(=O)N[C@H](C(=O)N1C[C@H](O)C[C@H]1C(=O)N[C@@H](C)c1ccc(-c2scnc2C)cc1)C(C)(C)C
Activity (NCI-H226 [5]): inactive

SMILES: COc1ccc(-c2cc(-c3ccc(OCC(=O)NCCOCCOCCNc4cccc5c4C(=O)N(C4CCC(=O)NC4=O)C5=O)cc3)nc3c2CC(=O)Nc2ccccc2-3)cc1OC (configuration not stated)
Activity [2]: inactive
Activity (NCI-H226 [3]): inactive

SMILES: CC(=O)c1ccc(OCc2ccccc2)cc1
TEAD transcriptional inhibition (active/inactive call) [4]: Active

SMILES: COc1cc(-c2cc(-c3ccccc3)nc3c2CC(=O)Nc2ccccc2-3)ccc1OCCCCCC(=O)N[C@H](C(=O)N1C[C@H](O)C[C@H]1C(=O)N[C@@H](C)c1ccc(-c2scnc2C)cc1)C(C)(C)C
Activity (NCI-H226 [5]): inactive

SMILES: COc1cc(-c2cc(-c3ccccc3)nc3c2CC(=O)Nc2ccccc2-3)ccc1OCCOCCC(=O)N[C@H](C(=O)N1C[C@H](O)C[C@H]1C(=O)N[C@@H](C)c1ccc(-c2scnc2C)cc1)C(C)(C)C
Activity (NCI-H226 [5]): inactive

SMILES: COc1cc(-c2cc(-c3ccccc3)nc3c2CC(=O)Nc2ccccc2-3)ccc1O
TEAD transcriptional inhibition (active/inactive call) [4]: Active

SMILES: COc1ccc(-c2cc(-c3ccccc3)nc3c2CC(=O)Nc2ccccc2-3)cc1OCCOC(C)=O
TEAD transcriptional inhibition (active/inactive call) [4]: Active

SMILES: COc1cc(-c2cc(-c3ccccc3)nc3c2CC(=O)Nc2ccccc2-3)ccc1OCC(=O)NCCOCCNc1cccc2c1C(=O)N(C1CCC(=O)NC1=O)C2=O (configuration not stated)
Activity (NCI-H226 [5]): inactive

SMILES: CN[C@@H](C)C(=O)N[C@H](C(=O)N1CCC[C@H]1c1nc(C(=O)c2cccc(OCCOCCNC(=O)[C@]34CC[C@@H](C(C)=O)[C@@H]3[C@H]3CC[C@@H]5[C@@]6(C)CC[C@H](O)C(C)(C)[C@@H]6CC[C@@]5(C)[C@]3(C)CC4)c2)cs1)C1CCCCC1
Activity [19]: < 50%

SMILES: COc1cc(-c2cc(-c3ccccc3)nc3c2CC(=O)Nc2ccccc2-3)ccc1OCC(=O)NCCOCCOCCNc1cccc2c1C(=O)N(C1CCC(=O)NC1=O)C2=O (configuration not stated)
Activity (NCI-H226 [5]): inactive

Now from value to compound, other results behind:

TEAD transcriptional inhibition (active/inactive call) [4]: Active
SMILES: COc1ccc(-c2cc(-c3ccccc3)nc3c2CC(=O)Nc2ccccc2-3)cc1OCc1ccccc1

Activity [6]: Active
SMILES: COc1cc(-c2cc(-c3ccccc3)nc3c2CC(=O)Nc2ccccc2-3)ccc1OCCOCCOCCOCCC(=O)N[C@H](C(=O)N1C[C@H](O)C[C@H]1C(=O)N[C@@H](C)c1ccc(-c2scnc2C)cc1)C(C)(C)C
Activity (NCI-H226 [5]): inactive

Activity [7]: inactive
SMILES: COc1cc(-c2cc(-c3ccccc3)nc3c2CC(=O)Nc2ccccc2-3)ccc1OCCCCCCCCCC(=O)N[C@H](C(=O)N1C[C@H](O)C[C@H]1C(=O)N[C@@H](C)c1ccc(-c2scnc2C)cc1)C(C)(C)C
Activity (NCI-H226 [8]): inactive

Activity [11]: inactive
SMILES: COc1ccc(-c2cc(-c3ccccc3)nc3c2CC(=O)Nc2ccccc2-3)cc1OCC(=O)NCCOCCOCCOCCNc1cccc2c1C(=O)N(C1CCC(=O)NC1=O)C2=O (configuration not stated)
Activity (NCI-H226 [5]): inactive
Activity (NCI-H226 [12]): Active

Activity [13]: inactive
SMILES: COc1ccc(-c2cc(-c3ccccc3)nc3c2CC(=O)Nc2ccccc2-3)cc1OCCOCCOCCC(=O)N[C@H](C(=O)N1C[C@H](O)C[C@H]1C(=O)N[C@@H](C)c1ccc(-c2scnc2C)cc1)C(C)(C)C
Activity (NCI-H226 [5]): inactive
Activity (NCI-H226 [12]): Active

Activity [11]: inactive
SMILES: COc1ccc(-c2cc(-c3ccccc3)nc3c2CC(=O)Nc2ccccc2-3)cc1OCC(=O)NCCOCCOCCNc1cccc2c1C(=O)N(C1CCC(=O)NC1=O)C2=O (configuration not stated)
Activity (NCI-H226 [5]): inactive
Activity (NCI-H226 [12]): Active

Activity [13]: inactive
SMILES: COc1ccc(-c2cc(-c3ccccc3)nc3c2CC(=O)Nc2ccccc2-3)cc1OCCOCC(=O)N[C@H](C(=O)N1C[C@H](O)C[C@H]1C(=O)N[C@@H](C)c1ccc(-c2scnc2C)cc1)C(C)(C)C
Activity (NCI-H226 [5]): inactive
Activity (NCI-H226 [12]): Active

TEAD transcriptional inhibition (active/inactive call) [4]: Active
SMILES: COc1cc(-c2cc(-c3ccccc3)nc3c2CC(=O)Nc2ccccc2-3)ccc1OCCOC(C)=O

Activity [13]: inactive
SMILES: COc1ccc(-c2cc(-c3ccccc3)nc3c2CC(=O)Nc2ccccc2-3)cc1OCCOCCC(=O)N[C@H](C(=O)N1C[C@H](O)C[C@H]1C(=O)N[C@@H](C)c1ccc(-c2scnc2C)cc1)C(C)(C)C
Activity (NCI-H226 [5]): inactive
Activity (NCI-H226 [12]): Active

Activity [9]: inactive
SMILES: COc1ccc(-c2cc(-c3ccc(OCCCCCCCC(=O)N[C@H](C(=O)N4C[C@H](O)C[C@H]4C(=O)N[C@@H](C)c4ccc(-c5scnc5C)cc4)C(C)(C)C)cc3)nc3c2CC(=O)Nc2ccccc2-3)cc1OC
Activity (NCI-H226 [3]): inactive

DC50 [14]: 14.9 µM
Activity [15]: Dose-Dependent Effect
SMILES: COc1cc(-c2cc(-c3ccccc3)nc3c2CC(=O)Nc2ccccc2-3)ccc1OCCOCC(=O)N[C@H](C(=O)N1C[C@H](O)C[C@H]1C(=O)N[C@@H](C)c1ccc(-c2scnc2C)cc1)C(C)(C)C
Activity (NCI-H226 [5]): inactive

IC50 (NCI-H226 [16]): 3.9 µM
IC50 (Huh-7 [17]): 69 µM
SMILES: COc1ccc(-c2cc(-c3ccccc3)nc3c2CC(=O)Nc2ccccc2-3)cc1OC
inhibition (INH) (NCI-H226 [18]): 95%

Activity [9]: inactive
SMILES: COc1ccc(-c2cc(-c3ccc(OCCCCCCCCCC(=O)N[C@H](C(=O)N4C[C@H](O)C[C@H]4C(=O)N[C@@H](C)c4ccc(-c5scnc5C)cc4)C(C)(C)C)cc3)nc3c2CC(=O)Nc2ccccc2-3)cc1OC
Activity (NCI-H226 [3]): inactive

Activity [11]: inactive
SMILES: COc1ccc(-c2cc(-c3ccccc3)nc3c2CC(=O)Nc2ccccc2-3)cc1OCC(=O)NCCOCCNc1cccc2c1C(=O)N(C1CCC(=O)NC1=O)C2=O (configuration not stated)
Activity (NCI-H226 [5]): inactive
Activity (NCI-H226 [12]): Active
